Reference: ChEMBL document CHEMBL3046330, “Synthesis and biological activity of hydrazidehydrazones and their corresponding 3-acetyl-2,5-disubstituted-2,3-dihydro-1,3,4-oxadiazoles” (Med Chem Res, 2012)
≈ marks a conversion by molar mass, not a printed value. Calls of active or inactive are those of the source. The rule behind the calls is not given here.

Tests used:
[1] = system: Candida parapsilosis; experiment: Antifungal activity against Candida parapsilosis NRRL Y-12696 after 24 hr by NCCLS broth microdilution method; assay type: functional; conditions: Lodderomyces parapsilosis, NRRL Y-12696, 24 h
[2] = system: Vero; experiment: Cytotoxicity against Chlorocebus aethiops (African green monkey) Vero cells assessed as cell viability up to 25 ug/ml after 48 hr by neutral red assay; assay type: cell-based; conditions: chlorocebus sabaeus
[3] = system: Nakaseomyces glabratus; experiment: Antifungal activity against Candida glabrata clinical isolate after 24 hr by NCCLS broth microdilution method; assay type: functional
[4] = system: Candida tropicalis; experiment: Antifungal activity against Candida tropicalis NRRL Y-12968 after 24 hr by NCCLS broth microdilution method; assay type: functional; conditions: NRRL Y-12968, 24 h
[5] = system: Candida albicans; experiment: Antifungal activity against Candida albicans clinical isolate after 24 hr by NCCLS broth microdilution method; assay type: functional
[6] = system: Candida tropicalis; experiment: Antifungal activity against Candida tropicalis NRRL Y-12968 at 2000 ug/ml by agar diffusion method; assay type: functional; conditions: read-out: IZ
[7] = system: RAW264.7; experiment: Cytotoxicity against Mus musculus (mouse) RAW264.7 cells up to 25 ug/ml; assay type: cell-based
[8] = system: HL-60; experiment: Cytotoxicity against Homo sapiens (human) HL60 cells; assay type: cell-based
[9] = system: Colletotrichum gloeosporioides; experiment: Antifungal activity against Colletotrichum gloeosporioides assessed as growth inhibition at 30 uM after 72 hr by broth microdilution method; assay type: functional; conditions: read-out: GI
[10] = system: Candida albicans; experiment: Antifungal activity against Candida albicans ATCC 90028 after 24 hr by NCCLS broth microdilution method; assay type: functional; conditions: ATCC 90028, 24 h
[11] = Cytotoxicity against Sus scrofa (pig) LLC-PK11 cells assessed as cell viability up to 25 ug/ml after 48 hr by neutral red assay; assay type: cell-based; conditions: llc-pk11, 48 h
[12] = system: Colletotrichum acutatum; experiment: Antifungal activity against Colletotrichum acutatum assessed as growth inhibition at 30 uM after 72 hr by broth microdilution method; assay type: functional; conditions: read-out: GI
[13] = system: SW1353; experiment: Inhibition of PMA-induced NFkappaB activity in Homo sapiens (human) SW1353 cells up to 25 ug/ml incubated for 30 min followed by PMA induction for 8 hr by luciferase reporter gene assay; assay type: cell-based
[14] = system: HL-60; experiment: Antioxidant activity in PMA-stimulated Homo sapiens (human) HL60 cells assessed as inhibition of intracellular ROS generation up to 25 ug/ml incubated for 30 min prior to PMA stimulation measured after 30 min by DCFH-DA assay relative to vehicle-treated control; assay type: functional, cell-based
[15] = system: Botrytis cinerea; experiment: Antifungal activity against Botryotinia fuckeliana at 0.3 to 30 uM after 48 to 72 hr by broth microdilution method; assay type: functional, organism-based
[16] = system: SK-MEL; experiment: Cytotoxicity against Homo sapiens (human) SK-MEL cells assessed as cell viability up to 25 ug/ml after 48 hr by neutral red assay; assay type: functional, cell-based
[17] = system: Pichia kudriavzevii; experiment: Antifungal activity against Pichia kudriavzevii NRRL Y-7179 after 24 hr by NCCLS broth microdilution method; assay type: functional; conditions: NRRL Y-7179, 24 h
[18] = system: Cyberlindnera jadinii; experiment: Antifungal activity against Cyberlindnera jadinii NRRL Y-900 after 24 hr by NCCLS broth microdilution method; assay type: functional; conditions: Williopsis jadinii, NRRL Y-900, 24 h
[19] = system: KB; experiment: Cytotoxicity against Homo sapiens (human) KB cells assessed as cell viability up to 25 ug/ml after 48 hr by neutral red assay; assay type: functional, cell-based
[20] = target: T1, Nitric oxide synthase, inducible (Mus musculus) (UniProt P29477); experiment: Inhibition of iNOS in Mus musculus (mouse) RAW264.7 cells assessed as inhibition of LPS-induced nitrite production up to 25 ug/ml incubated for 30 min prior to LPS challenge measured after 24 hr by Griess assay relative to vehicle-treated control; assay type: cell-based
T1 sequence (whole entry): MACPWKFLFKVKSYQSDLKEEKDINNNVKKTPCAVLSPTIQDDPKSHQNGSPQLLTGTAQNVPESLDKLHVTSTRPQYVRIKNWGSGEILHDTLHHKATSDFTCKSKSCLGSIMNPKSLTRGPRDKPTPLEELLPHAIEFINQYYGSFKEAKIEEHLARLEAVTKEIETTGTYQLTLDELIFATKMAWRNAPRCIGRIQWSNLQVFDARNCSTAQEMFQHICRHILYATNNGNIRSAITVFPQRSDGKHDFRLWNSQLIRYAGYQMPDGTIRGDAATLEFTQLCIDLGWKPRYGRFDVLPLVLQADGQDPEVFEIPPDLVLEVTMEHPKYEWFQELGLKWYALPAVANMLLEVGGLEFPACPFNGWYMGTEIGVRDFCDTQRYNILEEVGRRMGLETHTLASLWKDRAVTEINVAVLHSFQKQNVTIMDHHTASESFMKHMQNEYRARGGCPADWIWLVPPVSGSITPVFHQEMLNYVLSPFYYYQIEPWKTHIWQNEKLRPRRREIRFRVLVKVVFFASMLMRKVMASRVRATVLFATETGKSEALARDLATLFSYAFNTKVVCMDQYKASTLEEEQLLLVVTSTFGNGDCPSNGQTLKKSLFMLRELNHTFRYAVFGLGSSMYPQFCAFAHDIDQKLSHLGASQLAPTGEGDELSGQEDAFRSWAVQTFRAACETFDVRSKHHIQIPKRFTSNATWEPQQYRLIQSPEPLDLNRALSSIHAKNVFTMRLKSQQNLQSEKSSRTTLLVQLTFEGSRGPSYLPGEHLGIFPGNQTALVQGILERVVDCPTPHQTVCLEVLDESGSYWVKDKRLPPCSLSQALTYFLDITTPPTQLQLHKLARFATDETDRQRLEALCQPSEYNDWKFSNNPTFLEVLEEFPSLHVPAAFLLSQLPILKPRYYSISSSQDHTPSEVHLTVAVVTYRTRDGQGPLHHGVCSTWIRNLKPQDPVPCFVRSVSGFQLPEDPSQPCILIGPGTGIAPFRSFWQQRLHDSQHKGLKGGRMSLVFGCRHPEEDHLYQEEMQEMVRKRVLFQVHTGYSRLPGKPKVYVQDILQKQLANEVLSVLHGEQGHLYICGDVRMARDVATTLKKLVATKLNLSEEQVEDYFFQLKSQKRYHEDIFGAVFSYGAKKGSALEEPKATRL

[21] = system: Candida albicans; experiment: Antifungal activity against Candida albicans NRRL Y-12983 after 24 hr by NCCLS broth microdilution method; assay type: functional; conditions: NRRL Y-12983, 24 h
[22] = system: Fusarium oxysporum; experiment: Antifungal activity against Fusarium oxysporum assessed as growth inhibition at 30 uM after 72 hr by broth microdilution method; assay type: functional; conditions: read-out: GI
[23] = system: BT-549; experiment: Cytotoxicity against Homo sapiens (human) BT549 cells assessed as cell viability up to 25 ug/ml after 48 hr by neutral red assay; assay type: functional, cell-based
[24] = target: Transcription factor Sp1 (Homo sapiens, UniProt P08047); experiment: Inhibition of Sp1 (unknown origin) up to 25 ug/ml by luciferase reporter gene assay
[25] = system: SK-OV-3; experiment: Cytotoxicity against Homo sapiens (human) SKOV3 cells assessed as cell viability up to 25 ug/ml after 48 hr by neutral red assay; assay type: functional, cell-based
[26] = system: Phomopsis obscurans; experiment: Antifungal activity against Phomopsis obscurans assessed as growth inhibition at 30 uM after 144 hr by broth microdilution method; assay type: functional; conditions: Paraphomopsis obscurans, read-out: GI
[27] = system: Colletotrichum fragariae; experiment: Antifungal activity against Colletotrichum fragariae at 0.3 to 30 uM after 48 to 72 hr by broth microdilution method; assay type: functional, organism-based
[28] = system: Candida albicans; experiment: Antifungal activity against Candida albicans clinical isolate at 2000 ug/ml by agar diffusion method; assay type: functional; conditions: read-out: IZ

Chain of Transcription factor Sp1 (P08047 whole entry): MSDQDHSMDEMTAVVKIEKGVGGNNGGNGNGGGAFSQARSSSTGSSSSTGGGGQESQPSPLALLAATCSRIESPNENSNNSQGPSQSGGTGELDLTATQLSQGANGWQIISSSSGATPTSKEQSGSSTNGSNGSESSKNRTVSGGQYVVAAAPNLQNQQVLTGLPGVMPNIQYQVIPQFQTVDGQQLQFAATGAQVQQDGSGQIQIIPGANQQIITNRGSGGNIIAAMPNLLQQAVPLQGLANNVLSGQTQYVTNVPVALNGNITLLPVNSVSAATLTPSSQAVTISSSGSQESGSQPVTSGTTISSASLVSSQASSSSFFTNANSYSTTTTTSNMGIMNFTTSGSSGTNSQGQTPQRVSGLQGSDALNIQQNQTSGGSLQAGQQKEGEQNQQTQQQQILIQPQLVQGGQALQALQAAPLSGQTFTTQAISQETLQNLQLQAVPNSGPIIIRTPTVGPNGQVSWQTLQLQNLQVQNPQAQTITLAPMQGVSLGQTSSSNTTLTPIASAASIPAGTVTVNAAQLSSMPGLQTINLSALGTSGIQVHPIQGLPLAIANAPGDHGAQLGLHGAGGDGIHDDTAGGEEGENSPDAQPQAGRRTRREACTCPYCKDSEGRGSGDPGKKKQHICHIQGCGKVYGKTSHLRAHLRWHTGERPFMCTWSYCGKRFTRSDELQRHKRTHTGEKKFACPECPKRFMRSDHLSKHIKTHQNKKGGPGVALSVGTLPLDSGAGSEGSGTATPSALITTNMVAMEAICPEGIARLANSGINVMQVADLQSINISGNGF

## CC(=O)N1N=C(c2ccc(F)cc2)OC1c1ccc(Br)s1 (stereo not drawn)
[1]
  MIC: > 1000 µg/mL
[2]
  Activity: Not Active
[3]
  MIC: > 1000 µg/mL
[4]
  MIC: > 1000 µg/mL
[5]
  MIC: > 1000 µg/mL
[6]
  zone of inhibition at 2000 µg/mL: 9 mm
[7]
  Activity: Non-toxic
[8]
  IC50: 5.9 µg/mL (≈ 16 µM)
[9]
  inhibition of growth at 30 µM: 66%
[10]
  MIC: > 1000 µg/mL
[11]
  Activity: Not Active
[12]
  inhibition of growth at 30 µM: 49%
[13]
  inhibition: inactive
[14]
  inhibition: inactive
[15]
  Activity: inactive
[16]
  Activity: inactive
[17]
  MIC: > 1000 µg/mL
[18]
  MIC: > 1000 µg/mL
[19]
  Activity: inactive
[20]
  inhibition: inactive
[21]
  MIC: > 1000 µg/mL
[22]
  inhibition of growth at 30 µM: 67%
[23]
  Activity: inactive
[24]
  inhibition (INH): Not Active
[25]
  Activity: inactive
[26]
  inhibition of growth at 30 µM: 65%
[27]
  Activity: inactive
[28]
  zone of inhibition at 2000 µg/mL: 9 mm
